Measured values as given in US8778871B2 (Takeda Pharmaceutical Company Limited, priority 2004, dated 2014).
Starred links: 1 amine or outer side, 2 acyl side, 3 side chain; linkers in the order of their positions; H or OH if unused. Non-standard residues stand in square brackets, D forms with d. Residues, ends and D or L forms follow the SMILES beside them. No end group written: not given here. *: point of attachment. X1 = NC(=O)C[C@@H](C(=O)[*:2])N(C[C@@H](N)Cc1ccc(O)cc1)[*:1]; X3 = O=C(CNC(=S)[C@H](Cc1ccccc1)N[*:1])[*:2]; Diphenylacetyl = O=C(C(c1ccccc1)c1ccccc1)*; Arg(Me) = CNC(=N)NCCC[C@H](N)C(=O)O; Cha = N[C@@H](CC1CCCCC1)C(=O)O; X7 = O=C(c1c[nH]c2ccccc12)*; Orn = NCCC[C@H](N)C(=O)O; Abu = CC[C@H](N)C(=O)O; Bz = O=C(c1ccccc1)*; azaGly = NNC(=O)O

Assays:
hOT7T175 [1] = biological target: T1, hOT7T175 (Homo sapiens, UniProt Q969F8); test: Intracellular Ca ion level-increasing activity using FLIPR (180 seconds; specific activity to Metastin (1-54)); format: cell-based; conditions: hOT7T175/CHO, change in intracellular calcium ion level for 180 seconds, Tables 21-23
T1 construct: expressed in transfected cells
T1 sequence (Q969F8 whole entry L364H): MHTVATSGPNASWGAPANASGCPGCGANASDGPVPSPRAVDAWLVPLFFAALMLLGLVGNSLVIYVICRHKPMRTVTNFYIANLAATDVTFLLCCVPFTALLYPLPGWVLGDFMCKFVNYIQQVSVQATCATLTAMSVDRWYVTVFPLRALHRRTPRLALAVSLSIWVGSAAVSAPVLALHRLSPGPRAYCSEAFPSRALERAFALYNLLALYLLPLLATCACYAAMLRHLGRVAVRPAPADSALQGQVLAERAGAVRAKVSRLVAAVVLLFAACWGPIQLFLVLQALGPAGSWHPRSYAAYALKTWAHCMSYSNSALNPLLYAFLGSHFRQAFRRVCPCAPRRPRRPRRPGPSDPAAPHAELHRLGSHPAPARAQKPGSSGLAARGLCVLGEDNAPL

hOT7T175 [2] = biological target: T2, hOT7T175 (Homo sapiens, UniProt Q969F8, L364H); format: cell-based; conditions: hOT7T175/CHO, FLIPR, evaluation for 40 seconds after initiation of the reaction
T2 construct: expressed in transfected cells
T2 sequence (Q969F8 whole entry L364H): as above
Description: The intracellular Ca ion level-increasing activity was measured using FLIPR as in TEST EXAMPLE 2.

| Molecule | intracellular Ca ion level-increasing activity [specific activity to Metastin (1-54)] (hOT7T175 [1]) | Specific Act. (EC50/MS10 EC50) (hOT7T175 [2]) |
| --- | --- | --- |
| CNC(=N)NCCC[C@H](NC(=O)[C@H](CC(C)C)NC(=O)NNC(=O)[C@H](Cc1ccccc1)NC(=O)[C@@H](NC(=O)[C@H](CC(N)=O)NC(=O)[C@H](Cc1c[nH]c2ccccc12)NC(=O)[C@H](CC(N)=O)NC(=O)[C@H](N)Cc1ccc(O)cc1)[C@@H](C)O)C(=O)N[C@@H](Cc1ccccc1)C(N)=O [Compound No. 297, D-Tyr-Asn-Trp-Asn-Thr-Phe-AzaGly-Leu-Arg(Me)-Phe-NH2] (H-[dY]NWNTF[azaGly]L[Arg(Me)]F-NH2) | 1 | 5.5 |
| D-Tyr-D-Pya(4)-Asn-Trp-Phe-AzaGly-Leu-Arg(Me)-Trp-NH2 [Compound No. 491] | 7 | 1.0 |
| D-Tyr-Pya(4)-Ala-Ser-Phe-AzaGly-Leu-Arg(Me)-Trp-NH2 [Compound No. 502] | 10 | 1.4 |
| Pyrrole-2-carbonyl-Phe-AzaGly-Leu-Arg(Me)-Trp-NH2 [Compound No. 455] | 5 | 4.1 |
| CNC(=N)NCCC[C@H](NC(=O)[C@H](CC(C)C)NC(=O)NNC(=O)[C@H](Cc1ccccc1)NC(=O)[C@H](CO)NC(=O)[C@H](CC(N)=O)NC(=O)c1c[nH]c2ccccc12)C(=O)N[C@@H](Cc1ccccc1)C(N)=O [Compound No. 265, Indole-3-carbonyl-Asn-Ser-Phe-AzaGly-Leu-Arg(Me)-Phe-NH2] (X7-NSF[azaGly]L[Arg(Me)]F-NH2) | 3 | 4.4 |
| Pyrimidine-2-carbonyl-Phe-AzaGly-Leu-Arg(Me)-Trp-NH2 [Compound No. 479] | 5 | 2.6 |
| 6-Chloronicotinoyl-Phe-AzaGly-Leu-Arg(Me)-Trp-NH2 [Compound No. 463] | 2 | 4.6 |
| Acp-D-Tyr-D-Pya(4)-Asn-Ser-Phe-AzaGly-Leu-Arg(Me)-Phe-NH2 [Compound No. 504] | 2 | 6.9 |
| CNC(=N)NCCC[C@H](NC(=O)[C@H](CC(C)C)NC(=O)CNC(=S)[C@H](Cc1ccccc1)NC(=O)[C@H](CO)NC(=O)[C@H](CC(N)=O)NC(=O)[C@H](Cc1c[nH]c2ccccc12)NC(=O)[C@H](CC(N)=O)NC(=O)[C@H](N)Cc1ccc(O)cc1)C(=O)N[C@@H](Cc1ccccc1)C(N)=O [Compound No. 296, D-Tyr-Asn-Trp-Asn-Ser-PheΨ(CSNH)Gly-Leu-Arg(Me)-Phe-NH2] (H-[dY]NWNS[X3]L[Arg(Me)]F-NH2) | 3 | 5.2 |
| D-Tyr-Pya(4)-Asn-Ser-Phe-AzaGly-Leu-Arg(Me)-Phe-NH2 [Compound No. 490] | 3 | 6.2 |
| Ac-Phe-AzaGly-Leu-Arg(Me)-Trp-NH2 [Compound No. 358] | 2 | 5.6 |
| 4-Imidazolecarbonyl-Phe-AzaGly-Leu-Arg(Me)-Trp-NH2 [Compound No. 459] | 2 | 7.3 |
| CNC(=N)NCCC[C@H](NC(=O)[C@H](CC(C)C)NC(=O)NNC(=O)[C@H](Cc1ccccc1)NC(=O)[C@H](CO)NC(=O)[C@H](CC(N)=O)NC(=O)[C@H](Cc1c[nH]c2ccccc12)NC(=O)[C@H](CC(N)=O)NC(=O)[C@H](N)Cc1ccc(O)cc1)C(=O)N[C@@H](Cc1ccc(F)cc1)C(N)=O [Compound No. 318, D-Tyr-Asn-Trp-Asn-Ser-Phe-AzaGly-Leu-Arg(Me)-Phe(4F)-NH2] | 5 | 2.9 |
| Bz-[Cha][azaGly]L[Arg(Me)]W-NH2 [Compound No. 449] | 5 | 4.2 |
| [dY][dF]ASF[azaGly]L[Arg(Me)]W-NH2 [Compound No. 514] | 10 | 0.7 |
| Dap-D-Tyr-Asn-Trp-Asn-Ser-Phe-Gly-Leu-Arg(Me)-Phe-NH2 [Compound No. 387] | 1 | 5.0 |
| CNC(=N)NCCC[C@H](NC(=O)[C@H](CC(C)C)NC(=O)NNC(=O)[C@H](Cc1ccccc1)NC(=O)[C@H](CO)NC(=O)[C@H](CC(N)=O)NC(=O)C(c1ccccc1)c1ccccc1)C(=O)N[C@@H](Cc1ccccc1)C(N)=O [Compound No. 268, Diphenylacetyl-Asn-Ser-Phe-AzaGly-Leu-Arg(Me)-Phe-NH2] (Diphenylacetyl-NSF[azaGly]L[Arg(Me)]F-NH2) | 1 | 4.5 |
| CNC(=N)NCCC[C@H](NC(=O)[C@H](CC(C)C)NC(=O)CNC[C@H](Cc1ccccc1)NC(=O)[C@H](CO)NC(=O)[C@H](CC(N)=O)NC(=O)[C@H](Cc1c[nH]c2ccccc12)NC(=O)[C@H](CC(N)=O)NC(=O)[C@H](N)Cc1ccc(O)cc1)C(=O)N[C@@H](Cc1ccccc1)C(N)=O [Compound No. 308, D-Tyr-Asn-Trp-Asn-Ser-PheΨ(CH2NH)Gly-Leu-Arg(Me)-Phe-NH2] | 2 | 2.6 |
| 3-Phenylpropionyl-Asn-Ser-Trp-AzaGly-Leu-Arg(Me)-Trp-NH2 [Compound No. 507] | 5 | 1.7 |

| Molecule | intracellular Ca ion level-increasing activity [specific activity to Metastin (1-54)] (hOT7T175 [1]) | Specific Act. (EC50/MS10 EC50) (hOT7T175 [2]) |
| --- | --- | --- |
| 3-Furancarbonyl-Phe-AzaGly-Leu-Arg(Me)-Trp-NH2 [Compound No. 454] | 6 | 2.5 |
| [dY][dW][Abu]SF[azaGly]L[Arg(Me)]W-NH2 [Compound No. 513] | 20 | 0.4 |
| D-Tyr-D-Pya(4)-Asn-Ser-Phe-AzaGly-Leu-Har-Trp-NH2 [Compound No. 481] | 5 | 2.4 |
| 4-Aminomethylbenzoyl-Phe-AzaGly-Leu-Arg(Me)-Trp-NH2 [Compound No. 473] | 3 | 4.2 |
| Dimethylcarbamoyl-Phe-AzaGly-Leu-Arg(Me)-Trp-NH2 [Compound No. 467] | 1 | 4.0 |
| 6-Methylnicotinoyl-Phe-AzaGly-Leu-Arg(Me)-Trp-NH2 [Compound No. 445] | 5 | 4.2 |
| CC(C)C[C@H](NC(=O)CNC(=O)[C@H](Cc1ccccc1)NC(=O)[C@H](CO)NC(=O)[C@H](CC(N)=O)NC(=O)[C@H](Cc1c[nH]c2ccccc12)NC(=O)[C@H](CC(N)=O)NC(=O)[C@@H](N)Cc1ccc(O)cc1)C(=O)N[C@@H](CCCN)C(=O)N[C@@H](Cc1ccccc1)C(N)=O [Compound No. 314] (H-YNWNSFGL[Orn]F-NH2) | 1 | 4.4 |
| 6-(Trifluoromethyl)nicotinoyl-Phe-AzaGly-Leu-Arg(Me)-Trp-NH2 [Compound No. 464] | 1 | 10.5 |
| Diphenylacetyl-AzaGly-Leu-Arg(Me)-Trp-NH2 [Compound No. 378] | ½ | 10.4 |
| Cyclopropanecarbonyl-Cha-AzaGly-Leu-Arg(Me)-Trp-NH2 [Compound No. 451] | 5 | 2.6 |
| Dibenzylcarbamoyl-AzaGly-Leu-Arg(Me)-Trp-NH2 [Compound No. 393] | 1 | 5.9 |
| 3-Phenylpropionyl-Asn-Ile-Phe-AzaGly-Leu-Arg(Me)-Trp-NH2 [Compound No. 506] | 1 | 1.3 |
| 2-(Indol-3-yl)ethylcarbamoyl-Phe-AzaGly-Leu-Arg(Me)-Trp-NH2 [Compound No. 369] | 2 | 4.8 |
| CC(C)C[C@H](NC(=O)CNC(=O)[C@H](Cc1ccccc1)NC(=O)[C@H](CO)NC(=O)[C@H](CC(N)=O)NC(=O)[C@H](Cc1c[nH]c2ccccc12)NC(=O)[C@H](CC(N)=O)NC[C@@H](N)Cc1ccc(O)cc1)C(=O)N[C@@H](CCCNC(=N)N)C(=O)N[C@@H](Cc1ccccc1)C(N)=O [Compound No. 294] (H-[X1]WNSFGLRF-NH2) | 10 | 0.7 |
| Benzoyl-PheΨ(NHCO)Gly-Leu-Arg(Me)-Trp-NH2 [Compound No. 423] | 5 | 5.6 |
| D-Tyr-D-Pya(4)-Asn-Ser-Cha-Ala-Leu-Arg(Me)-Trp-NH2 [Compound No. 497] | 2 | 1.4 |
| (2S)-2-(3-Indolylprpionyloxy)-3-phenylpropionyl-AzaGly-Leu-Arg(Me)-Trp-NH2 [Compound No. 379] | 2 | 3.0 |
| 3-Phenylpropionyl-Ala-Ser-Phe-AzaGly-Leu-Arg(Me)-Trp-NH2 [Compound No. 500] | 1 | 3.2 |
